The source of these data is patent US5219825A, “Synergistic herbicidal compositions comprising herbicides which generate toxic oxygen radicals and chelating agents which inhibit their detoxification” (Yeda Research and Development Co., Ltd., priority 1986, dated 1993).

The subject of one assay is bean leaf discs. Nature of the assay: Bean leaf disc bleaching assay. Type of assay: cell-based. Conditions: paraquat 20 μM; chelator 0.01% w/v where added; 5 h at 450 μEin.m^-2 s^-1. Here is the method: We used this bean leaf disc system to ascertain the potential of chelators to synergize a large variety of phytotoxicants purported to act by generating active oxygen species in the light.
Bean discs were incubated on solutions containing the above mixtures for 5 h at 450 μEin.m^-2 s^-1 and the chlorophyll remaining in the leaves was assayed.

For assay [1], the system named is Conyza bonariensis low herbicide requiring biotype. As to the kind of experiment: Photosynthesis (14CO2 fixation) of leaf discs removed 5 h after spray treatment. Type of assay: in vivo. Conditions: foliar, acifluorfen 0 μM, DDC 0.5% alone, leaf discs removed 5 h after treatment, untreated control = 100. Here is the method:
Similarly, both the paraquat resistant and sensitive biotypes of Conyza bonariensis were treated with two other oxidant generating herbicides. Atrazine (of the triazine group) is the most widely used oxidant generating herbicides in agriculture. We used various dilutions of a commercial wettable powder (Atranex 50WP-Agan Chemicals) to which we added 0.5% DDC. The effects were scored 24 h later. […] We also tested to see whether acifluorfen, a nitro diphenyl ether herbicide would be synergized. It is generally agreed that light and oxygen are required for its action via oxidant damage. We sprayed a commercial formulation of acifluorfen (Blazer, Rohm and Haas) to which were added 0.25% Tween-20 detergent, with and without DDC. The effects were scored 24 h later.
^b photosynthesis (^14 CO2 fixation) was used as an
additional measurement of phytotoxicity. Leaf discs were removed 5 h afte
treatment for measurement

`C[n+]1ccc(-c2cc[n+](C)cc2)cc1` [paraquat, 1,1'-dimethyl-4-4'bipyridium ion]: in the assay on bean leaf discs, the “chlorophyll - % of control” value is recorded as 52 % of control.

For the compound `CCN(CC)C(=S)[S-].[Na+]` [DDC, Sodium diethyldithiocarbamate], the activity at 0.5 % in assay [1] was 92%.
